The values below are quoted from earlier work in patent US12214218B2, “Perfusion modulated tumor dose sculpting with single dose radiotherapy” (MEMORIAL SLOAN KETTERING CANCER CENTER, priority 2019, dated 2025).

Like-named read-outs stand apart in the source and are kept apart here.

For the molecule `CNC(=O)c1ccccc1Sc1ccc2c(/C=C/c3ccccn3)n[nH]c2c1` [axitinib], the average half-life (in vivo) is on record as 2.5 to 6 h.
Turning to `COc1cc2c(Oc3ccc4[nH]c(C)cc4c3F)ncnc2cc1OCCCN1CCCC1` [cediranib], the average half-life (plasma half-life for cediranib) is 22 to 27 h.
For anginex, where the note is “in vivo”, the half-life was 0.833 h.
Regarding `Cc1cc(C)c(/C=C2\C(=O)Nc3ccccc32)[nH]1` [Semaxanib/SU5416, Semaxanib], the average half-life (in vivo) was 0.5 to 1 h.

B1: rhASM: Recombinant ASM manufactured for clinical use; orphan drug status for Type B NPD (protein, UniProt P17405 47-631, looked up)
Sphingomyelin …: LALSDSRVLWAPAEAHPLSPQGHPARLHRIVPRLRDVFGWGNLTCPICKGLFTAINLGLKKEPNVARVGSVAIKLCNLLKIAPPAVCQSIVHLFEDDMVEVWRRSVLSPSEACGLLLGSTCGHWDIFSSWNISLPTVPKPPPKPPSPPAPGAPVSRILFLTDLHWDHDYLEGTDPDCADPLCCRRGSGLPPASRPGAGYWGEYSKCDLPLRTLESLLSGLGPAGPFDMVYWTGDIPAHDVWHQTRQDQLRALTTVTALVRKFLGPVPVYPAVGNHESTPVNSFPPPFIEGNHSSRWLYEAMAKAWEPWLPAEALRTLRIGGFYALSPYPGLRLISLNMNFCSRENFWLLINSTDPAGQLQWLVGELQAAEDRGDKVHIIGHIPPGHCLKSWSWNYYRIVARYENTLAAQFFGHTHVDEFEVFYDEETLSRPLAVAFLAPSATTYIGLNPGYRVYQIDGNYSGSSHVVLDHETYILNLTQANIPGAIPHWQLLYRARETYGLPNTLPTAWHNLVYRMRGDMQLFQTFWFLYHKGHPPSEPCGTPCRLATLCAQLSARADSPALCRHLMPDGSLPEAQSLWPRPLFC
Regarding B1, the “toxicity at high doses” value with wild type mice is “non-toxic”.

What is called half-life is the time needed for the level to fall by half in the phase considered.
